The values below come from ChEMBL document CHEMBL1126404, “A novel approach to the site specific delivery of potential HMG-CoA reductase inhibitors” (Bioorg Med Chem Lett, 1992).

The target of assay [1] is T1, 3-hydroxy-3-methylglutaryl-coenzyme A reductase (Rattus norvegicus) (UniProt P51639).
T1 sequence (whole entry): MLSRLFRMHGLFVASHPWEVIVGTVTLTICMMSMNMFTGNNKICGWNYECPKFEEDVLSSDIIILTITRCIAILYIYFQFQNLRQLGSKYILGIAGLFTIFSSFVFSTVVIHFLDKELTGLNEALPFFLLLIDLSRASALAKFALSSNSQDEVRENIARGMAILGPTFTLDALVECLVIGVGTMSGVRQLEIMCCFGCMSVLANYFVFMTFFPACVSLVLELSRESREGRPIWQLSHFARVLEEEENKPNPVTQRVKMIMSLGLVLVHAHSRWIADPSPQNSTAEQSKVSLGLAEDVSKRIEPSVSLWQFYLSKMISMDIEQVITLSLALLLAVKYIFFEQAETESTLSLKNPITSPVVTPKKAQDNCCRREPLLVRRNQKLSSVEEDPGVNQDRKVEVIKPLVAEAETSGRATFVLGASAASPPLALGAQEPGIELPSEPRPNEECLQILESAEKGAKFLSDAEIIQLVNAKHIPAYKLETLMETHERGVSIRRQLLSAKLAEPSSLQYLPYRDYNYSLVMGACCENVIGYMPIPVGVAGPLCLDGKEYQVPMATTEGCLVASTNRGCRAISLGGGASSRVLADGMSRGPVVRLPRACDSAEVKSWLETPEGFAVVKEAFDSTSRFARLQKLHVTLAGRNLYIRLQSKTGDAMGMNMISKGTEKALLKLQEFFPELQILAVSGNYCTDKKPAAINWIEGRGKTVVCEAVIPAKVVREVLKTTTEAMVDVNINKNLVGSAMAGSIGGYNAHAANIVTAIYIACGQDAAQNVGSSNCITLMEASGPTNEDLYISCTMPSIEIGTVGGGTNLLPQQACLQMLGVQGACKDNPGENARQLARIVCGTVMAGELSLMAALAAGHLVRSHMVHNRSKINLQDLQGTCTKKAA
As to the kind of experiment: The compound was evaluated for Inhibition of rat hepatic microsomal HMG-CoA reductase at log concentration of ~-3/M.

The target of assay [2] is T1, 3-hydroxy-3-methylglutaryl-coenzyme A reductase (Rattus norvegicus). As to the kind of experiment: The compound was evaluated for Inhibition of rat hepatic microsomal HMG-CoA reductase at log concentration of ~-4/M.
For assay [3], the target named is T2, 3-hydroxy-3-methylglutaryl-coenzyme A reductase (Rattus norvegicus, UniProt P51639).
T2 sequence (P51639 whole entry): T1 sequence (whole entry)
The experiment in a line: The compound was evaluated for Inhibition of rat hepatic microsomal HMG-CoA reductase.

Assay [4] deals with T1, 3-hydroxy-3-methylglutaryl-coenzyme A reductase (Rattus norvegicus). The experiment in a line: The compound was evaluated for Inhibition of rat hepatic microsomal HMG-CoA reductase at log concentration of ~-5/M.
The target is the same in assay [5]. The experiment in a line: The compound was evaluated for Inhibition of rat hepatic microsomal HMG-CoA reductase at log concentration of ~-6/M.
For assay [6] the target is unchanged. The experiment in a line: The compound was evaluated for Inhibition of rat hepatic microsomal HMG-CoA reductase at log concentration of ~-8/M.
The target is the same in assay [7]. The experiment in a line: The compound was evaluated for Inhibition of rat hepatic microsomal HMG-CoA reductase at log concentration of ~-6/M.
For assay [8] the target is unchanged.
Description: The compound was evaluated for Inhibition of rat hepatic microsomal HMG-CoA reductase at log concentration of ~-10/M.
Assay [9] shares this target. This is another data set of the same source.
Description: The compound was evaluated for Inhibition of rat hepatic microsomal HMG-CoA reductase at log concentration of ~-11/M
Assay [10] has the same target. The source holds these as a separate data set.
Description: The compound was evaluated for Inhibition of rat hepatic microsomal HMG-CoA reductase at log concentration of ~-9/M.
Assay [11] shares this target. The experiment in a line: The compound was evaluated for Inhibition of rat hepatic microsomal HMG-CoA reductase at log concentration of ~-3/M.
For assay [12] the target is unchanged. The experiment in a line: The compound was evaluated for Inhibition of rat hepatic microsomal HMG-CoA reductase at log concentration of ~-4/M.
Assay [13] has the same target. As to the kind of experiment: The compound was evaluated for Inhibition of rat hepatic microsomal HMG-CoA reductase at log concentration of ~-5/M.
For assay [14] the target is unchanged. As to the kind of experiment: The compound was evaluated for Inhibition of rat hepatic microsomal HMG-CoA reductase at log concentration of ~-7/M.
For assay [15] the target is unchanged. The experiment in a line: The compound was evaluated for Inhibition of rat hepatic microsomal HMG-CoA reductase at log concentration of ~-8/M.

For `CC(=O)O[C@@H]1CC[C@@]2(C)[C@@H](C1)C[C@@H](OC(C)=O)[C@@H]1[C@@H]2C[C@H](OC(C)=O)[C@]2(C)[C@@H]([C@H](C)CC(O)CC(O)CC(=O)O)CC[C@@H]12` (some centres not stated), the Activity (nM min-1 mg-1) was 0 in assay [1]; 80 in assay [2]; 240 in [4]; 280 in [5]; 300 in assay [6]. The half-maximal inhibitory concentration (IC50) in assay [3] was 39.2 µM.

With `CC[C@@H](C)C(=O)O[C@H]1C[C@@H](C)C=C2C=C[C@H](C)[C@H](CC[C@@H](O)C[C@@H](O)CC(=O)O)[C@H]21`, the Activity (nM min-1 mg-1) in assay [7] amounted to 0; in assay [8], 280; in [9], 280; in assay [10] it was 240.

On to `COC(=O)CC(=O)CC(O)C[C@@H](C)[C@H]1CC[C@H]2[C@@H]3[C@H](OC(C)=O)C[C@@H]4C[C@H](OC(C)=O)CC[C@]4(C)[C@H]3C[C@H](OC(C)=O)[C@]12C` (some centres not stated), for which the Activity (nM min-1 mg-1) in assay [11] amounted to 250; in assay [12] it was 290; in assay [13], 290; in [7], 300; in assay [14], 290; in assay [15], 280.

On to `C[C@H](CC(O)CC(O)CC(=O)O)[C@H]1CC[C@H]2[C@@H]3[C@H](O)C[C@@H]4C[C@H](O)CC[C@]4(C)[C@H]3C[C@H](OC(=O)C(C)(C)C)[C@]12C` (some centres not stated), for which the Activity (nM min-1 mg-1) in assay [12] worked out at 0; in assay [13], 30; in assay [7] it was 150; in assay [14] it was 270; in assay [6] it was 280. This compound yielded an IC50 in assay [3] of 12.3 µM.

One may read the IC50 as the midpoint of a concentration-inhibition curve.
